Columns and labels:
L1210 = test: Cytotoxicity against mouse L1210 cells by microculture tetrazolium assay; assay type: functional, cell-based
KB = test: Cytotoxicity against human KB cells by microculture tetrazolium assay; assay type: functional, cell-based
[1] = Inhibition of tubulin polymerization

COc1cc([C@@H]2c3cc4c(c(OC)c3[C@@H](O)[C@H]3COC(=O)[C@H]23)OCO4)cc(OC)c1OC
IC50 (L1210): 82 µM | IC50 (KB): 45 nM | IC50 [1]: 9 µM

COc1cc([C@@H]2c3cc4c(c(OC)c3[C@H](O)[C@H]3COC(=O)[C@H]23)OCO4)cc(OC)c1OC
IC50 (KB): 11 nM | IC50 [1]: 5 µM
